# Key:
# [1] = system: Experimental Autoimmune Uveitis (EAU); type: in vivo, mouse; conditions: Day 18; PMA and ionomycin 4 hours
# [2] = system: Th17 (CCR6+) cells; test: Intracellular IL-17 / IFN-γ expression by flow cytometry in human Th17 cultures; type: cell-based
# From the text: Absolute expression was plotted on a log2 scale colour coded from low to high expression. […] All data are represented as mean±SEM.
# (§1) CCR6 positive and CCR6 negative CD4^+ T cells were purified and cultured in the presence of polarising cytokines for two weeks. […] Intracellular cytokines were quantified by flow cytometry (FIG. 23A) and percentage suppression calculated in relation to an untreated control (FIG. 23B). Data represents the mean expression of three to four normal volunteers, with error expressed as standard deviation.
# Therefore, to determine whether in vitro, human CD4+Th17 T cells were responsive to glucocorticoids, we generated an IL-17 secreting CD4+ T cell subset using the innate expression of CCR6. […] As a result of glucocorticoid binding the glucocorticoid receptor (GR), the GR translocates to the nucleus and binds to glucocorticoid-response elements within the DNA. […] We then compared the translocation of the GR in Th17 and Th0 cells.
# Cell Cultures. Murine Naive T cells were obtained from lymph nodes and spleens of OT-II/3A9 mice using CD4 positive selection kits following the manufacturer's instructions (Miltenyi Biotech). Splenocytes from respective wild-type mice were irradiated and mixed with the CD4^+ T cells at a 1:10 ratio. […] All cells were kept in a 37° C., 5% CO2 humidified incubator. Cells were used after two rounds of activation. Human peripheral CD4^+CCR6^− (Th0) and CD4^+CCR6^+ (Th17) cells were FACS sorted, resuspended to 2×10^6cells/ml in complete RPMI-1640 (Invitrogen) supplemented with 10% FCS, L-glutamine and Penicillin/streptomycin (all PAA Laboratories Ltd, UK), stimulated with plate-bound 5 μg/ml anti-CD3 and 5 μg/ml anti-CD28 antibodies (eBioscience, US) (Th0) or with plate-bound antibodies and a polarizing cytokine cocktail of 20 ng/ml IL-6, 10 ng/ml IL-23, 10 ng/ml IL-1β (R&D Systems, US), 100 ng/ml anti-IFN-γ, 100 ng/ml anti-IL-4 (eBioscience, US) (Th17) for 3 days. […]
# [3] = system: Th0 (CCR6-) cells; test: Intracellular IFNγ expression by flow cytometry in human Th0 cultures; type: cell-based; conditions: 24 hrs incubation
# From the text: as §1, with “FIGS. 23A-23B show suppression of IL-17A in human Th17 (CCR6+) cells and IFNγ cytokine production in human Th0 (CCR6^−) and Th17 cells. CCR6 positive” for “CCR6 positive”
# Cell Cultures. Murine Naive T cells were obtained from lymph nodes and spleens of OT-II/3A9 mice using CD4 positive selection kits following the manufacturer's instructions (Miltenyi Biotech). Splenocytes from respective wild-type mice were irradiated and mixed with the CD4^+ T cells at a 1:10 ratio. […] All cells were kept in a 37° C., 5% CO2 humidified incubator. Cells were used after two rounds of activation. […]
# [4] = system: CD4+ T cells; test: Inhibition of isolated CD4+ T cell proliferation (tritiated thymidine incorporation); type: cell-based, human
# Description: Proliferation was measured by tritiated thymidine incorporation (ccpm). Data represents the mean of two normal volunteers, with error expressed as standard deviation.
# T Cell Proliferation Assays. T cell proliferation was measured by pulsing with 18.5 kBq [^3H] thymidine (GE Healthcare, US) per well for the final 12 hours of cultures and determining thymidine uptake in counts per minute (c.p.m).
SMILES,suppression of IFN-γ expression in eye infiltrating CD4+ cells [1],suppression of IFNγ production in Th17 cells ([2]; 24 hrs incubation),suppression of IL-17A production in Th17 (CCR6+) cells ([2]; 24 hrs incubation),"dose required for cytokine suppression, less than cyclosporine A ([2]; IL-17 in Th17, IFNγ in Th17 and Th0 cells)",suppression of IFNγ production in Th0 (CCR6-) cells [3],"concentration for full inhibition of CD4+ cell proliferation, lower compared with cyclosporine A [4]",dose achieving the same inhibition of CD4+ T cell proliferation [4]
"C[C@@H]1C[C@H]2[C@@H]3CCC4=CC(=O)C=C[C@]4(C)[C@@]3(F)[C@@H](O)C[C@]2(C)[C@@]1(O)C(=O)CO [Dex, dexamethasone]",45%,,,,,,
C=CC[C@@H]1/C=C(\C)C[C@H](C)C[C@H](OC)[C@H]2O[C@@](O)(C(=O)C(=O)N3CCCC[C@H]3C(=O)O[C@H](/C(C)=C/[C@@H]3CC[C@@H](O)[C@H](OC)C3)[C@H](C)[C@@H](O)CC1=O)[C@H](C)C[C@@H]2OC [tacrolimus],,equally suppress,equally suppress,20 ×,equally suppress,20 fold,10 ng/mL

# Source: patent US20200231685A1, “CONJUGATES FOR TREATING INFLAMMATORY DISEASE AND IDENTIFICATION OF PATIENTS LIKELY TO BENEFIT FROM SUCH TREATMENT” (The University of Bristol, priority 2013, published 2020)
